From EP2292237A1, “Sigma ligands for the prevention or treatment of pain induced by chemotherapy” (Laboratorios del. Dr. Esteve, S.A., priority 2009, dated 2011)
“Also recorded” adds a separate entry of the source. Read-outs that look alike come from different tables or passages of the source. One block for each molecule: values may come before it.

Experiments:
CD-1 mice [1] = experiment: Acetone test: expression of paclitaxel-induced cold allodynia, single s.c. injection on day 10; type: in vivo; settings: for expression of cold allodynia induced by paclitaxel: acute treatment 32-64 mg/kg s.c. on day 10 in mice pretreated with paclitaxel; for response to acetone of control (paclitaxel-vehicle treated) animals: acute treatment 32 or 64 mg/kg s.c. on day 10; for duration of hind paw licking/biting (acetone test) versus saline: single s.c. injection 64 mg/kg in mice pretreated with paclitaxel-vehicle (Figs. 7 and 8)
Method: Experiments were performed in CD-1 mice (Charles River, U.S.A.) with at least n = 10/experimental group. Mice weighing 25-30 g were used. The animals were housed in colony cages with free access to food and water prior to the experiments. They were maintained in temperature- and light-controlled rooms (22 ± 1 °C, lights on at 08.00 h and off at 20.00 h, air replacement every 20 min). Testing took place during the light phase (from 9.00 h to 15.00 h).
Therefore, the cumulative dose was 10 mg/kg per mouse.
Compounds 1a and 1b were dissolved in normal saline just before administration and applied at doses of 32 or 64 mg/kg subcutaneously.
The response of the animals to the different nociceptive stimuli was tested subsequently during 2-4 weeks, depending on the test (see below), without any additional treatment. Each animal was tested only in one nociceptive model. […] Each animal received only one dose of compound 1 a or 1b and was tested in only one nociceptive model.
Procedure for assessment of cold allodynia. Cold allodynia was tested as previously described by Smith et al. in Life Sci., 2004, 74(21), 2593-604, by gently touching the plantar skin of the hind paws with an acetone bubble formed with a syringe connected to a thin polyethylene tube. The mice were housed and habituated for 30 min in transparent plastic boxes (7 x 7 x 13 cm) with a floor made of wire mesh. After the adaptation period, acetone was applied alternately three times to each paw at intervals of 30 s, and the duration and frequency of licking or biting were recorded. A small mirror was placed behind the chambers to allow clear observation of the paws. The time spent licking or biting the paw was recorded by a stopwatch and represented as the cumulative time of licking/biting in the six measurements. Since licking persisting more than 10 s in the experiments was very unusual, a cut-off time of 10 s was used for each trial. […]
On that day, duration of hind paw licking/biting was recorded immediately before (time 0) and at several times (60, 120 and 180 min) after the injection of compound 1 a, compound 1 b or saline.
On that day, duration of hind paw licking/biting was recorded immediately before (time 0) and at several times (60, 120 and 180 min) after the injection of compound 1a, compound 1b or saline.

CD-1 mice [2] = experiment: Acetone test: development of paclitaxel-induced cold allodynia, co-administration with paclitaxel or paclitaxel vehicle; type: in vivo; settings: for duration of acetone-induced paw licking/biting: 64 mg/kg s.c. 30 min before each i.p. paclitaxel dose (2 mg/kg), versus paclitaxel + saline; for duration of acetone-induced paw licking/biting / days with statistically significant differences in duration of acetone-induced licking/biting versus paclitaxel + saline: days 1 to 5; for days with statistically significant differences in duration of acetone-induced licking/biting versus paclitaxel + saline: 64 mg/kg s.c. 30 min before each i.p. paclitaxel dose, days after the first dose of paclitaxel; for response of the animals to acetone (duration of hind paw licking/biting): co-administration days 1 to 5 of paclitaxel-vehicle i.p. and compound 64 mg/kg s.c., versus paclitaxel-vehicle + saline, hydrochloride, 64 mg/kg; for development of cold allodynia induced by paclitaxel: co-administration of paclitaxel (2 mg/kg, i.p.) and compound (64 mg/kg, s.c.)
patients = settings: cited from earlier work

SMILES: O=C(O)C(=O)O.c1ccc(-n2ncc3c2CCCC3CCN2CCOCC2)cc1 (stereo not shown) [compound 2, 4,5,6,7-tetrahydro-4-(2-(morpholin-4-yl)ethyl)-1-phenyl-1H-indazole oxalate]
duration of acetone-induced licking/biting (CD-1 mice [1]; acute injection 32-64 mg/kg s.c., 10 days after the first dose of paclitaxel): dose-dependently reduced

duration of paw licking/biting in the acetone test (CD-1 mice [2]; paclitaxel (i.p., 2 mg/kg) and saline (s.c.) co-administered days 1 to 5, began on day 7, maximum on day 14): significant increase
control animals treated with paclitaxel that did not show cold allodynia (CD-1 mice [1]; 'non-responders': less than 2 s licking/biting on days 7 and 10 after paclitaxel): Around 33%
cold allodynia (increase in the duration of acetone-induced paw licking/biting) (CD-1 mice [1]; paclitaxel i.p. once daily days 1 to 5, evaluated 10 days after the first dose): developed cold allodynia
SMILES: CC(=O)O[C@H]1C(=O)[C@@]2(C)[C@H]([C@H](OC(=O)c3ccccc3)[C@]3(O)C[C@H](OC(=O)[C@H](O)[C@@H](NC(=O)c4ccccc4)c4ccccc4)C(C)=C1C3(C)C)[C@]1(OC(C)=O)CO[C@@H]1C[C@@H]2O [paclitaxel, Paclitaxel, reference compound]
progressing to dose-limiting neurotoxicity in % of patients (patients; paclitaxel dose 135 mg/m^2): 0%
progressing to dose-limiting neurotoxicity in % of patients (patients; paclitaxel dose 175 mg/m^2): 21%
progressing to dose-limiting neurotoxicity in % of patients (patients; paclitaxel dose 250-300 mg/m^2): 71%

SMILES: Cl.c1ccc(-n2ncc3c2CCC[C@@H]3CCN2CCOCC2)cc1 [compound 1b, (R)-4,5,6,7-tetrahydro-4-(2-(morpholin-4-yl)ethyl)-1-phenyl-1H-indazole hydrochloride]
duration of acetone-induced paw licking/biting (CD-1 mice [2]): reduced
days with statistically significant differences in duration of acetone-induced licking/biting versus paclitaxel + saline (CD-1 mice [2]): at days 7, 14 and 21
response of the animals to acetone (duration of hind paw licking/biting) (CD-1 mice [2]): did not significantly modify; also recorded: No statistically significant differences
development of cold allodynia induced by paclitaxel (CD-1 mice [2]): inhibited
expression of cold allodynia induced by paclitaxel (CD-1 mice [1]): inhibited
response to acetone of control (paclitaxel-vehicle treated) animals (CD-1 mice [1]): did not affect
duration of hind paw licking/biting (acetone test) versus saline (CD-1 mice [1]): No statistically significant differences

SMILES: Cl.c1ccc(-n2ncc3c2CCC[C@H]3CCN2CCOCC2)cc1 [compound 1a, (S)-4,5,6,7-tetrahydro-4-(2-(morpholin-4-yl)ethyl)-1-phenyl-1H-indazole hydrochloride]
duration of acetone-induced paw licking/biting (CD-1 mice [2]): reduced
days with statistically significant differences in duration of acetone-induced licking/biting versus paclitaxel + saline (CD-1 mice [2]): from day 7 to day 21
response of the animals to acetone (duration of hind paw licking/biting) (CD-1 mice [2]): did not significantly modify; also recorded: No statistically significant differences
development of cold allodynia induced by paclitaxel (CD-1 mice [2]): inhibited
times at which the effect was statistically significant in comparison with the saline-treated group (CD-1 mice [1]; acute treatment 32-64 mg/kg s.c. on day 10, time after administration of the drug): at all times evaluated from 60 to 180 min
expression of cold allodynia induced by paclitaxel (CD-1 mice [1]; hydrochloride): dose-dependently inhibited
response to acetone of control (paclitaxel-vehicle treated) animals (CD-1 mice [1]): did not affect
duration of hind paw licking/biting (acetone test) versus saline (CD-1 mice [1]): No statistically significant differences
